From publication PMC5623904, “Structural investigation of nucleophosmin interaction with the tumor suppressor Fbw7γ” (Oncogenesis, 2017)
Where two headings read alike, the source gives them in different places. Peptide text beside a SMILES is read from it. * marks the point of attachment. Dansyl = CN(C)c1cccc2c(S(=O)(=O)*)cccc12

Key:
Type in all cases: binding
[1] = biological target: T1, Nter-NPM1 (residues 16-123) (Homo sapiens, UniProt P06748); assay: Equilibrium fluorescence titration of dansylated peptide with Nter-NPM1
T1 construct: inferred from pET28a NdeI/BamHI cloning and HisTrap purification) (N); made in house; host or cells: Escherichia coli BL21(DE3)
T1 sequence (P06748 16-123): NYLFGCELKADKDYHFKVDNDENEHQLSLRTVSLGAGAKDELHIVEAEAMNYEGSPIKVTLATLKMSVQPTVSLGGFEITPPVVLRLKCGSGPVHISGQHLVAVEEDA
Description: (§1) All experiments were performed at 25 °C in sodium phosphate buffer 20 mM pH 7.2, or in sodium phosphate buffer 20 mM plus 100 mM NaCl pH 7.2 (which sets ionic strength to 150 mM), using a FluoroMax-4 spectrofluorometer (Jobin Yvon, Edison, NJ, USA), equipped with a water bath apparatus. Fbw7γ and CENP-W peptides, functionalized with a dansyl (5-dimetilamminonaftalen-1-sulphonyl) group at their N terminus, were purchased from JPT (Germany). Tat peptide was synthesized employing the solid phase method following standard Fmoc strategies and labeled with dansyl fluorophore at its N terminus. Crude product was purified by RP-HPLC applying a linear gradient of 0.1% TFA CH3CN in 0.1% TFA water from 5% to 65% over 12 min using a semi-preparative 2.2 × 5 cm C18 column at a flow rate of 20 ml/min. Purity and identity were confirmed by LC–MS analysis.
(§2) Titration experiments were conducted with an excitation wavelength of 330 nm while the fluorescence emission spectra were collected in the range between 350 and 650 nm. Titrations were performed at constant peptide concentration (5 μM) and varying protein concentrations (from 0 to 200/400 μM). Titrations were performed in triplicate and data, analyzed with the Graphpad Prism software (https://www.graphpad.com/scientific-software/prism/), were reported as dissociation constant±s.d.
(§3) Equilibrium binding curves were fitted to the standard quadratic equation: […]
(§4) where F is the observed fluorescence signal, n and [A]0 are the total concentration of non-varied and varied species, respectively, and KD is the equilibrium dissociation constant. B and C are constants taking into account the total fluorescence change and fluorescence at [A]0=0, respectively, and k is a term describing the slope of the curve at high protein concentration. Whenever possible, under pseudo first-order conditions, the equation 1 was simplified to: […]

[2] = biological target: T2, Nter-NPM1 D36A-E39A-E93A (Homo sapiens, UniProt P06748, D36A/E39A/E93A); assay: Equilibrium fluorescence titration, Nter-NPM1 triple mutant; settings: dansylated peptide 5 μM
T2 construct: inferred from pET28a NdeI/BamHI cloning and HisTrap purification) (N); made in house; host or cells: Escherichia coli BL21(DE3)
T2 sequence (P06748 16-123 D36A/E39A/E93A): as the sequence (P06748 16-123) above, with D21A, E24A, E78A counted along it
Description: (§5) Nter-NPM1 mutants were obtained by site-directed mutagenesis using the Quickchange II Lightning Site-Directed Mutagenesis kit (Stratagene, La Jolla, CA, USA), following manufacturer’s instructions. Oligonucleotides used for PCR were obtained from Primm Biotech (Milan, Italy). Forward oligonucleotides used are reported in Supplementary Table 2.
as §1, §2, §3, §4

[3] = biological target: T3, Nter-NPM1 D36A-E37A-E39A-E93A (Homo sapiens, UniProt P06748, D36A/E37A/E39A/E93A); assay: Equilibrium fluorescence titration, Nter-NPM1 quadruple mutant (E37A); settings: dansylated peptide 5 μM
T3 construct: inferred from pET28a NdeI/BamHI cloning and HisTrap purification) (N); made in house; host or cells: Escherichia coli BL21(DE3)
T3 sequence (P06748 16-123 D36A/E37A/E39A/E93A): as the sequence (P06748 16-123) above, with D21A, E22A, E24A, E78A counted along it
Description: as §5, §1, §2, §3, §4

[4] = biological target: T4, Nter-NPM1 D36A-E37A-E39A-E93A-E121A (Homo sapiens, UniProt P06748, D36A/E121A/E37A/E39A/E93A); assay: Equilibrium fluorescence titration, Nter-NPM1 quintuple mutant; settings: dansylated peptide 5 μM; for Kd: sodium phosphate 20 mM pH 7.2, 25 °C, triplicate, ±s.d.
T4 construct: inferred from pET28a NdeI/BamHI cloning and HisTrap purification) (N); made in house; host or cells: Escherichia coli BL21(DE3)
T4 sequence (P06748 16-123 D36A/E37A/E39A/E93A/E121A): as the sequence (P06748 16-123) above, with D21A, E22A, E24A, E78A, E106A counted along it
Description: as §5, §1, §2, §3, §4

[5] = biological target: T5, Nter-NPM1 D36A-E39A-E93A-E121A (Homo sapiens, UniProt P06748, D36A/E121A/E39A/E93A); assay: Equilibrium fluorescence titration, Nter-NPM1 quadruple mutant (E121A); settings: dansylated peptide 5 μM; sodium phosphate 20 mM pH 7.2, 25 °C; triplicate, ±s.d.
T5 construct: inferred from pET28a NdeI/BamHI cloning and HisTrap purification) (N); made in house; host or cells: Escherichia coli BL21(DE3)
T5 sequence (P06748 16-123 D36A/E39A/E93A/E121A): as the sequence (P06748 16-123) above, with D21A, E24A, E78A, E106A counted along it
Description: as §5, §1
as §2, with “constant±s.d. […]” for “constant±s.d.”
as §4, with “concentration.” for “concentration. Whenever possible, under pseudo first-order conditions, the equation 1 was simplified to:”

[6] = biological target: T6, Nter-NPM1 D36A (Homo sapiens, UniProt P06748, D36A); assay: Equilibrium fluorescence titration, Nter-NPM1 D36A mutant; settings: dansylated peptide 5 μM; sodium phosphate 20 mM pH 7.2, 25 °C; triplicate, ±s.d.
T6 construct: inferred from pET28a NdeI/BamHI cloning and HisTrap purification) (N); made in house; host or cells: Escherichia coli BL21(DE3)
T6 sequence (P06748 16-123 D36A): as the sequence (P06748 16-123) above, with D21A counted along it
Description: as §5
(§6) All experiments were performed at 25 °C in sodium phosphate buffer 20 mM pH 7.2, or in sodium phosphate buffer 20 mM plus 100 mM NaCl pH 7.2 (which sets ionic strength to 150 mM), using a FluoroMax-4 spectrofluorometer (Jobin Yvon, Edison, NJ, USA), equipped with a water bath apparatus. […]
as §2, with “Titrations were performed at constant peptide concentration (5 μM) and varying protein concentrations (from 0 to 200/400 μM).” left out, “constant±s.d. […]” for “constant±s.d.”
as §4, with “concentration.” for “concentration. Whenever possible, under pseudo first-order conditions, the equation 1 was simplified to:”

[7] = biological target: T7, Nter-NPM1 D36A-E93A (Homo sapiens, UniProt P06748, D36A/E93A); assay: Equilibrium fluorescence titration, Nter-NPM1 D36A-E93A mutant; settings: dansylated peptide 5 μM; sodium phosphate 20 mM pH 7.2, 25 °C; triplicate, ±s.d.
T7 construct: inferred from pET28a NdeI/BamHI cloning and HisTrap purification) (N); made in house; host or cells: Escherichia coli BL21(DE3)
T7 sequence (P06748 16-123 D36A/E93A): as the sequence (P06748 16-123) above, with D21A, E78A counted along it
Description: as §5, §6
as §2, with “Titrations were performed at constant peptide concentration (5 μM) and varying protein concentrations (from 0 to 200/400 μM).” left out, “constant±s.d. […]” for “constant±s.d.”
as §4, with “concentration.” for “concentration. Whenever possible, under pseudo first-order conditions, the equation 1 was simplified to:”

[8] = biological target: T8, Nter-NPM1 E39A (Homo sapiens, UniProt P06748, E39A); assay: Equilibrium fluorescence titration, Nter-NPM1 E39A mutant; settings: dansylated peptide 5 μM; sodium phosphate 20 mM pH 7.2, 25 °C; triplicate, ±s.d.
T8 construct: inferred from pET28a NdeI/BamHI cloning and HisTrap purification) (N); made in house; host or cells: Escherichia coli BL21(DE3)
T8 sequence (P06748 16-123 E39A): as the sequence (P06748 16-123) above, with E24A counted along it
Description: as §5, §6
as §2, with “Titrations were performed at constant peptide concentration (5 μM) and varying protein concentrations (from 0 to 200/400 μM).” left out, “constant±s.d. […]” for “constant±s.d.”
as §4, with “concentration.” for “concentration. Whenever possible, under pseudo first-order conditions, the equation 1 was simplified to:”

[9] = biological target: T9, Nter-NPM1 E93A (Homo sapiens, UniProt P06748, E93A); assay: Equilibrium fluorescence titration, Nter-NPM1 E93A mutant; settings: dansylated peptide 5 μM; sodium phosphate 20 mM pH 7.2, 25 °C; triplicate, ±s.d.
T9 construct: inferred from pET28a NdeI/BamHI cloning and HisTrap purification) (N); made in house; host or cells: Escherichia coli BL21(DE3)
T9 sequence (P06748 16-123 E93A): as the sequence (P06748 16-123) above, with E78A counted along it
Description: as §5, §6
as §2, with “Titrations were performed at constant peptide concentration (5 μM) and varying protein concentrations (from 0 to 200/400 μM).” left out, “constant±s.d. […]” for “constant±s.d.”
as §4, with “concentration.” for “concentration. Whenever possible, under pseudo first-order conditions, the equation 1 was simplified to:”

[10] = biological target: T10, Nter-NPM1 D36A-E39A (Homo sapiens, UniProt P06748, D36A/E39A); assay: Equilibrium fluorescence titration, Nter-NPM1 D36A-E39A mutant; settings: dansylated peptide 5 μM; sodium phosphate 20 mM pH 7.2, 25 °C; triplicate, ±s.d.
T10 construct: inferred from pET28a NdeI/BamHI cloning and HisTrap purification) (N); made in house; host or cells: Escherichia coli BL21(DE3)
T10 sequence (P06748 16-123 D36A/E39A): as the sequence (P06748 16-123) above, with D21A, E24A counted along it
Description: as §5, §6
as §2, with “Titrations were performed at constant peptide concentration (5 μM) and varying protein concentrations (from 0 to 200/400 μM).” left out, “constant±s.d. […]” for “constant±s.d.”
as §4, with “concentration.” for “concentration. Whenever possible, under pseudo first-order conditions, the equation 1 was simplified to:”

[11] = biological target: T11, Nter-NPM1 E39A-E93A (Homo sapiens, UniProt P06748, E39A/E93A); assay: Equilibrium fluorescence titration, Nter-NPM1 E39A-E93A mutant; settings: dansylated peptide 5 μM; sodium phosphate 20 mM pH 7.2, 25 °C; triplicate, ±s.d.
T11 construct: inferred from pET28a NdeI/BamHI cloning and HisTrap purification) (N); made in house; host or cells: Escherichia coli BL21(DE3)
T11 sequence (P06748 16-123 E39A/E93A): as the sequence (P06748 16-123) above, with E24A, E78A counted along it
Description: as §5, §6
as §2, with “Titrations were performed at constant peptide concentration (5 μM) and varying protein concentrations (from 0 to 200/400 μM).” left out, “constant±s.d. […]” for “constant±s.d.”
as §4, with “concentration.” for “concentration. Whenever possible, under pseudo first-order conditions, the equation 1 was simplified to:”

[12] = biological target: T12, Nter-NPM1 E121A (Homo sapiens, UniProt P06748, E121A); assay: Equilibrium fluorescence titration, Nter-NPM1 E121A mutant; settings: dansylated peptide 5 μM; sodium phosphate 20 mM pH 7.2, 25 °C; triplicate, ±s.d.
T12 construct: inferred from pET28a NdeI/BamHI cloning and HisTrap purification) (N); made in house; host or cells: Escherichia coli BL21(DE3)
T12 sequence (P06748 16-123 E121A): as the sequence (P06748 16-123) above, with E106A counted along it
Description: as §5, §6
as §2, with “Titrations were performed at constant peptide concentration (5 μM) and varying protein concentrations (from 0 to 200/400 μM).” left out, “constant±s.d. […]” for “constant±s.d.”
as §4, with “concentration.” for “concentration. Whenever possible, under pseudo first-order conditions, the equation 1 was simplified to:”

[13] = biological target: T13, Nter-NPM1 E37A (Homo sapiens, UniProt P06748, E37A); assay: Equilibrium fluorescence titration, Nter-NPM1 E37A mutant; settings: dansylated peptide 5 μM; sodium phosphate 20 mM pH 7.2, 25 °C; triplicate, ±s.d.
T13 construct: inferred from pET28a NdeI/BamHI cloning and HisTrap purification) (N); made in house; host or cells: Escherichia coli BL21(DE3)
T13 sequence (P06748 16-123 E37A): as the sequence (P06748 16-123) above, with E22A counted along it
Description: as §5, §6
as §2, with “Titrations were performed at constant peptide concentration (5 μM) and varying protein concentrations (from 0 to 200/400 μM).” left out, “constant±s.d. […]” for “constant±s.d.”
as §4, with “concentration.” for “concentration. Whenever possible, under pseudo first-order conditions, the equation 1 was simplified to:”

[14] = sodium phosphate 20 mM pH 7.2, 25 °C, triplicate, ±s.d., read-out: KD, D36A-E39A-E93A
[15] = sodium phosphate 20 mM pH 7.2, 25 °C, triplicate, ±s.d., read-out: KD, D36A-E37A-E39A-E93A

| Kd [6] [µM] | Kd [7] [µM] | Kd ([1]; wild type, sodium phosphate 20 mM plus 100 mM NaCl pH 7.2 (ionic strength 150 mM), 25 °C, dansylated peptide 5 μM, read-out: KD 100mM NaCl, Nter-NPM1) [µM] | Kd ([2]; sodium phosphate 20 mM plus 100 mM NaCl pH 7.2 (ionic strength 150 mM), 25 °C, read-out: KD 100mM NaCl, D36A-E39A-E93A) [µM] | Kd ([3]; sodium phosphate 20 mM plus 100 mM NaCl pH 7.2 (ionic strength 150 mM), 25 °C, read-out: KD 100mM NaCl, D36A-E37A-E39A-E93A) [µM] | KD 100mM NaCl, D36A-E37A-E39A-E93A-E121A ([4]; sodium phosphate 20 mM plus 100 mM NaCl pH 7.2 (ionic strength 150 mM), 25 °C) | Kd [8] [µM] | Kd [9] [µM] | Kd [10] [µM] | Kd [11] [µM] | Kd [12] [µM] | Kd [13] [µM] | Compound | Kd ([1]; SD, read-out: Nter-NPM1 KD) [µM] | Kd [2, 14] [µM] | Kd [3, 15] [µM] | Kd [4] [µM] | Kd [5] [µM] |
| --- | --- | --- | --- | --- | --- | --- | --- | --- | --- | --- | --- | --- | --- | --- | --- | --- | --- |
| – | – | – | – | – | – | – | – | – | – | – | – | C[C@H](NS(=O)(=O)c1cccc2c(N(C)C)cccc12)C(=O)NCC(=O)N[C@@H](CCCNC(=N)N)C(=O)N[C@@H](CCCCN)C(=O)N[C@@H](CCCCN)C(=O)N[C@@H](CCCNC(=N)N)C(=O)N[C@@H](CCCNC(=N)N)C(=O)N[C@@H](CCC(N)=O)C(=O)N[C@@H](CCCNC(=N)N)C(=O)N[C@@H](CCCNC(=N)N)C(=O)N[C@@H](CCCNC(=N)N)C(=O)N1CCC[C@H]1C(=O)N1CCC[C@H]1C(=O)N[C@@H](CCC(N)=O)C(=O)O [Tat*] | 2.4 ± 0.5 | 11.1 ± 2.1 | 57.4 ± 7 | 643 ± 70.8 | 63.8 ± 5 |
| 10.8 ± 2.6 | 8.4 ± 1.5 | 20.6 ± 2.6 | 66.8 ± 12.5 | 158 ± 12.3 | No Interaction | 6.2 ± 1.5 | 5 ± 1.6 | 13.5 ± 2 | 7.6 ± 1.9 | 13.3 ± 3.8 | 12.5 ± 1.4 | CSCC[C@H](NC(=O)[C@H](CCCNC(=N)N)NC(=O)[C@H](CCCNC(=N)N)NC(=O)[C@H](CCCNC(=N)N)NC(=O)[C@H](CS)NC(=O)[C@H](Cc1ccccc1)NC(=O)[C@@H]1CCCN1C(=O)[C@H](CC(C)C)NS(=O)(=O)c1cccc2c(N(C)C)cccc12)C(=O)N[C@@H](CCCCN)C(=O)N[C@@H](CCCNC(=N)N)C(=O)N[C@@H](CCCCN)C(=O)N[C@@H](CC(C)C)C(=O)N[C@@H](CC(=O)O)C(=O)N[C@@H](Cc1c[nH]cn1)C(=O)O [Fbw7γ*] (Dansyl-LPFCRRRMKRKLDH-OH) | 3.2 ± 0.6 | 22 ± 3 | 151 ± 20.5 | 654 ± 46.9 | 224 ± 35.9 |
